Experimental data: patent US10906864B2, “Nitroalkene non steroidal anti-inflammatory drugs (NA-NSAIDS) and methods of treating inflammation related conditions” (Institut Pasteur de Montevideo, priority 2017, dated 2021)

Experiments:
[1] = test system: NF-κB and inflammasome function in macrophages (THP-1 cells); test: IL-1β secretion by ELISA in PMA-differentiated THP-1 macrophages stimulated with LPS and ATP; format: cell-based
Procedure: In order to compare benzoic acid (BA) and nitroalkene benzoic acid (BANA) over NF-κB and inflammasome function in macrophages, THP-1 cells were differentiated into macrophages with PMA (200 nM, 48 h). Cells were then stimulated with LPS (250 ng/mL) and with ATP (5 mM, 45 minutes). Together with LPS (1st signal, FIG. 6) or ATP (2nd signal, FIG. 7), cells were treated with Benzoic acid (30 μM) or BANA (30 μM). Supernatants were collected and IL-1β secretion was measured by ELISA. […] Thus, BANA inhibits both the generation of the inflammasome, and inhibits the inflammasome itself. Further exemplary studies were performed with Flufenamate (FluFE) and nitroalkene flufenamate (FluFENA). In order to study the effect of Flufenamate (FluFE) and FluFENA over NF-κB and inflammasome function in macrophages, THP-1 cells were differentiated into macrophages with PMA (200 nM, 48 h). Cells were stimulated with LPS (250 ng/mL) and then with ATP (5 mM, 45 minutes). […] Cells were stimulated with LPS (250 ng/mL) and then with ATP (5 mM, 45 minutes). Together with LPS (1st signal, FIG. 10) or ATP (2nd signal, FIG. 11), cells were treated with Ibuprofen (20 μM) or IBUNA ([…] were collected and IL-1β secretion was measured by ELISA.

[2] = test system: in vivo model of peritonitis; test: In vivo model of peritonitis (LPS-induced inflammatory response), IL-1β by ELISA; set-up: species or system Mice
Procedure: Mice were treated with BANA, Benzoic Acid (50 mg/kg, IP) or the vehicle (100 mM Phosphate buffer 10% DMSO) for 1 hour. Then were injected with LPS (10 mg/kg, IP) or PBS for 2 hours. Mice were collected for peritoneal wash and blood samples were extracted. The peritoneal wash and plasma were stored to measure IL-1β by ELISA. The values are show as mean±SD from three mice per condition and we have used the statistic test one-way ANOVA with Bonferroni.

[3] = mice, 50 mg/kg IP 1 hour before LPS 10 mg/kg IP for 2 hours, as opposed to BA

SMILES: O=C(O)c1ccc(/C=C/[N+](=O)[O-])cc1 [BANA, (E)-4-(2-nitrovinyl)benzoic acid]
- IL-1β secretion, treatment together with LPS (1st signal) ([1]; 30 μM, LPS 250 ng/mL then ATP 5 mM 45 minutes, FIG. 6): inhibition of IL-1β secretion in cells stimulated by LPS
- IL-1β secretion, treatment together with ATP (2nd signal) ([1]; 30 μM, LPS 250 ng/mL then ATP 5 mM 45 minutes, FIG. 7): inhibition of IL-1β secretion in cells stimulated by ATP
- IL-1β release in LPS-induced inflammatory response (FIG. 12 legend) ([2]; in vivo): in vivo inhibition of IL-1β release
- level of IL-1β in blood plasma [2, 3]: marked decrease
- level of IL-1β in peritoneal wash [2, 3]: marked decrease

SMILES: O=C(O)c1cc(/C=C/[N+](=O)[O-])ccc1Nc1cccc(C(F)(F)F)c1 [FluFENA, (E)-5-(2-nitrovinyl)-2-((3-(trifluoromethyl)phenyl)amino)benzoic acid]
- IL-1β secretion, treatment together with LPS (1st signal) or ATP (2nd signal), versus Flufenamate (FluFE) ([1]; FluFE (5 μM) or FluFENA (5), FIG. 8 and FIG. 9): unexpected advantage

SMILES: CC(C)Cc1ccc(C(C)C(=O)O)cc1/C=C/[N+](=O)[O-] (stereo not shown) [IBUNA, (E)-2-(4-isobutyl-3-(2-nitrovinyl)phenyl)propanoic acid]
- IL-1β secretion, treatment together with LPS (1st signal) or ATP (2nd signal), versus Ibuprofen ([1]; Ibuprofen (20 μM) or IBUNA (20), FIG. 10 and FIG. 11): unexpected superiority
